Structures can show the parent of a compound that is named as a salt.
Legend:
[1] = test system: platelet aggregation; assay: Pharmacological test II: anti-aggregatory activity, collagen or ADP induced platelet aggregation in vitro (platelet rich plasma); type: cell-based; conditions: Oryctolagus cuniculus, 50% inhibition of control response, rabbit PRP, 1 minute preincubation at 37° C., collagen (3 μg/ml) or ADP (3 μM), inducer not given
Text: Blood platelet plays an important role only in hemostasis but also in thrombosis. Platelet hyperaggregability leads to an inclease in the number of circulating platelet aggregates, which may contribute toward the development of cardiac arrythmias, cardiac arrest or myocardial infarction. These cardiovascular diseases can be prevented by inhibition of platelet aggregation.
Blood was obtained from an anesthetized rabbit using 0.1 volumes of 3.8% sodium citrate as anticoagulant. Platelet rich plasma(PRP) was isolated by centrifugation at 650 rpm for 10 minutes at room temperature. After preincubation of PRP (0.25 ml) with various concentrations of test compounds (14 μl) for 1 minute at 37° C., collagen (3 μg/ml:final concentration) or ADP (3 μM:final concentration) was added to induce aggregation and the aggregation profiles were monitored with RIKADENKI six-channel aggregometer. The control experiment contained saline instead of test compound.
The anti-aggregatory activity was represented by the concentration of test compound which elicited 50% inhibition of control response.

[2] = test system: guinea-pig teania coli; assay: Pharmacological test I: calcium-antagonistic activity, inhibition of Ca++-evoked contraction of isolated taenia coli; type: cell-based; conditions: Cavia porcellus, 5 min; 50% inhibition of contraction evoked by CaCl2 (3×10^-4 M); Ca++-free-high-K Krebs solution, 32° C., 5 minutes pre-exposure
Experimental: The action potentials on the smooth muscles of uterus, teania coli and portal vein are dependent on calcium ion, and therefor these smooth muscle preparations are useful for screening of calcium antagonists. We measured the calcium-antagonistic activity of the compounds by the method using guinea-pig teania coli preparation.
Isolated guinea-pig teania coil was suspended in a 20 ml organ bath with Krebs solution at 32° C. and bubbled with 5% carbon dioxide in oxygen. After equilibration, the muscle was washed with Ca^++ -free Krebs solution, and when the muscle had relaxed to basal level, it was suspended in Ca^++ -free-high-K Krebs solution.
The muscle was exposed to test compounds for 5 minutes before addition of CaCl2, and the contraction evoked by CaCl2 (3×10^-4 M) was recorded isotonically. The calcium-antagonistic activity was represented by the concentration of test compound which elicited 50% inhibition of Ca^++ -evoked contraction (IC50).

[3] = Acute toxicity test, oral; conditions: rat, in vivo, male ddy-SLC, 0.5% tragacanth suspension
Experimental: Male ddy-SLC strain rats (4 weeks of age, weighing 19-21 g) were placed in a breeding room of constant temperature and huminity (23±1° C., 55±5%) and fed freely pellet diet and water ad. libitum for a week. Rats showing normal growth were selected for the test.
Test compounds are suspended in 0.5% tragacanth suspention and administered orally in a dose of 0.5 ml/20 g body weight.

Compound: CC(=O)N1c2ccccc2SC1c1ccccc1OCCCN(C)C1CCCCC1 (centres unmarked) [Compound 8]
- IC50 [1]: 4600 nM

Compound: COc1ccc(OCCCCCN(C)C2CCCCC2)c(C2Sc3ccccc3N2C(C)=O)c1 (centres unmarked) [Compound 21, 3-Acetyl-2-[2-[5-(N-cyclohexyl-N-methlamino)pentyloxy]-5-methoxyphenyl]benzothiazoline fumarate]
- IC50 [1]: 1300 nM

Compound: COc1ccc(OCCCCCCN(C)C2CCCCC2)c(C2Sc3ccccc3N2C(C)=O)c1 (centres unmarked) [Compound 22]
- IC50 [1]: 1100 nM

Compound: COc1ccc(OCCCCN(C)CCc2ccc(OC)c(OC)c2)c(C2Sc3ccccc3N2C(C)=O)c1 (centres unmarked) [Compound 23]
- IC50 [2]: 660 nM

Compound: CC(=O)N1c2ccccc2SC1c1cc([N+](=O)[O-])ccc1OCCCN(C)C1CCCCC1 (centres unmarked) [Compound 29]
- IC50 [1]: 3200 nM
- LD50 [3]: > 2000 mg/kg

Compound: CC(=O)N1c2ccccc2SC1c1cc([N+](=O)[O-])ccc1OCCCNCc1cccnc1 (centres unmarked) [Compound 33]
- IC50 [2]: 520 nM

Compound: COc1cc(C2Sc3ccccc3N2C(C)=O)cc(OC)c1OCCCN(C)C1CCCCC1 (centres unmarked) [Compound 54]
- IC50 [1]: 3100 nM

Compound: COc1cc(C2Sc3ccccc3N2C(C)=O)cc(OC)c1OCCCCN(C)C1CCCCC1 (centres unmarked) [Compound 55]
- IC50 [1]: 2000 nM

Compound: COc1ccc(OCCCCN2CCN(CCc3ccc(OC)c(OC)c3)CC2)c(C2Sc3ccccc3N2C(C)=O)c1 (centres unmarked) [Compound 63]
- LD50 [3]: ≥ 3000 mg/kg
- IC50 [2]: 640 nM

Compound: COc1ccc(OCCCCN2CCN(CCc3cc(OC)c(OC)c(OC)c3)CC2)c(C2Sc3ccccc3N2C(C)=O)c1 (centres unmarked) [Compound 67]
- LD50 [3]: > 1000 mg/kg
- IC50 [2]: 470 nM

Compound: CC(=O)N1c2ccccc2SC1c1cc([N+](=O)[O-])ccc1OCCCN1CCC(Cc2ccccc2)CC1 (centres unmarked) [Compound 95]
- IC50 [1]: 2700 nM
